Reference: PubChem BioAssay AID1259321 (Sanford-Burnham Center for Chemical Genomics, 2017)
“And” between values parts separate entries of the source, which are not always exact repeats. Equal entries are not always repeated. The source made the active and inactive calls.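 How the source made its calls: active means half-maximal concentration for changing protein binding to DNA, from the fitted dose curve, below 10 micromolar; inactive means the rest.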

Target: Nuclear receptor subfamily 1 group D member 1 (Homo sapiens) (UniProt P20393)
Test: modulators of Rev-erb alpha DNA binding, dose response, biochemical, FITC-DNA, fluorescence polarization (AID 1259321)

Nuclear receptor subfamily 1 group D member 1 (Homo sapiens), sequence (P20393 whole entry, looked up): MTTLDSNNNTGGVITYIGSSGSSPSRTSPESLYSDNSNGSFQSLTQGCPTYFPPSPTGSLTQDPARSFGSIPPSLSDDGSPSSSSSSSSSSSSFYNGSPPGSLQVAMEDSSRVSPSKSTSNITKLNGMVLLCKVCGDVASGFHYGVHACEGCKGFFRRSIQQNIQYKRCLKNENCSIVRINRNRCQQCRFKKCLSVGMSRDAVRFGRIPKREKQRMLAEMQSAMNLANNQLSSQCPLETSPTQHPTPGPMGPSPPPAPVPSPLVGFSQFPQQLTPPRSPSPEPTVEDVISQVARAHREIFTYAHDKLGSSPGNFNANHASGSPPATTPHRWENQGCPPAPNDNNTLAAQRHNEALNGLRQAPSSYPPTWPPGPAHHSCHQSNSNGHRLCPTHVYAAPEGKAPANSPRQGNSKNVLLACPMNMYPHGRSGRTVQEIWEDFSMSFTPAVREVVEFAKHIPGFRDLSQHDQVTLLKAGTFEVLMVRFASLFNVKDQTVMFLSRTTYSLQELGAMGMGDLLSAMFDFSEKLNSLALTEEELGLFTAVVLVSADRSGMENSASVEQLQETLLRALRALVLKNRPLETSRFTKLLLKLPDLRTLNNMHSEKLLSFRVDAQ

Structure (SMILES) | IC50
Cc1cc(C)c2c(N)c(C(=O)N/N=C/c3cccs3)sc2n1 | 5.4 µM
C/C=C(/C(=C/C)c1ccc(O)cc1)c1ccc(O)cc1 | > 40 µM (inactive)
O=C(CSc1nc2ccccc2c(=O)n1-c1ccc(F)cc1)Nc1cc(S(=O)(=O)N2CCOCC2)ccc1Cl | > 40 µM (inactive)
COc1ccc2cc(C3CC(c4cccs4)=NN3C(C)=O)c(Cl)nc2c1 (stereo unspecified) | 2.88 µM
COc1ccc(-c2c(C)nc(N)nc2-c2ccc(OCc3ccc(C)cc3)cc2O)cc1OC | > 40 µM (inactive)
CCN1/C(=C\c2ccc3ccccc3[n+]2CC)Sc2cc(C)ccc21 | 2.67 µM
O=c1c2ccccc2n2c(-c3ccc(F)cc3)nnc2n1Cc1ccccc1 | inactive
O=C(CSc1ncnc2c1oc1ccccc12)Nc1cccc(Cl)c1 | 4.59 µM
COc1ccc(Sc2nc3ccccc3n3c(C(F)(F)F)nnc23)cc1 | 3.01 µM
COc1ccc(-c2oc3ccccc3c(=O)c2OC(=O)c2ccc(C)cc2)cc1 | inactive
CCC(C)NC(=O)Cc1c(OC)ccc2cc(Br)ccc12 (stereo unspecified) | 8.21 µM
CN1C(=O)c2cc(NC(=O)Nc3ccccc3)ccc2OC[C@H]2O[C@@H](CC(=O)NC3CCC3)CC[C@@H]21 | inactive
CCOC(=O)CSc1nc2cc3c(cc2cc1C#N)OCCO3 | > 40 µM (inactive)
COC(=O)c1ccc(NC(=O)c2cc(Cl)ccc2OC)cc1 | inactive
CN(c1ccc(O)cc1)c1ccc([N+](=O)[O-])c2nonc12 | 6 µM
COc1ccc2nc(SCC(=O)Nc3ccc4sc(C)nc4c3)c(C#N)cc2c1 | 1.98 µM
C/C(N)=C(/C#N)C(=O)CSc1nc2ccccc2c(=O)n1-c1ccc(C)c(Cl)c1 | > 40 µM (inactive)
Fc1ccc(-n2c(-c3cccs3)nc3nc4ccccc4nc32)cc1 | 4.41 µM
O=C1c2cccc3c(O)ccc(c23)C(=O)N1Cc1ccccc1 | inactive
CN(C)/C=N/C1=C(C#N)C(c2cccs2)c2ccc3ccccc3c2O1 (stereo unspecified) | 3.95 µM
CCN(CC)c1ccc(/C=C(/C#N)c2nc3ccccc3[nH]2)c(OC(C)C)c1 | 3.45 µM
O=C(NCc1ccc2c(c1)OCO2)C1CCC(CNS(=O)(=O)c2cccc3nsnc23)CC1 (stereo unspecified) | > 40 µM (inactive)

Structure (SMILES) | IC50
COc1ccc2c(C)cc(SCC(=O)NC3CCCCC3)nc2c1 | > 40 µM (inactive)
CCN1C(=O)C(=CC=CN(C)c2ccccc2)SC1=S | inactive
CC(C)CCSc1nc(N)c(C#N)cc1C#N | 2.17 µM
CN1/C(=C\C=C2C(=O)NC(=S)NC2=O)C(C)(C)c2ccccc21 | 6.96 µM
O=C(OCC(=O)N1CCN(S(=O)(=O)c2ccc(Cl)cc2)CC1)c1cc(Br)ccc1O | 2.22 µM
CCc1cc2cc(C(=O)Nc3ccc(F)cc3)sc2s1 | 7.03 µM
O=C(c1cc2cc(Cl)ccc2[nH]1)N1CCN(c2ccccn2)CC1 | > 40 µM (inactive)
COc1cc(C(=O)Nc2cccc(-c3nc4cc(C)ccc4o3)c2)cc(OC)c1OC | 4.32 µM
CN(CC(=O)Nc1ccc(Cl)cc1)S(=O)(=O)c1ccc2c(c1)n(C)c(=O)c(=O)n2C | 5.44 µM
CCC(=O)c1ccc(OCc2ccc(C(=O)c3ccccc3)cc2)cc1 | 3.02 µM
COc1ccc(C(=O)c2c[nH]c(C(=O)NCc3cccs3)c2)cc1 | > 40 µM (inactive)
Cc1sc2nc(SC(C)C)nc(N)c2c1C | 3.72 µM
CCOc1ccc(OCC)c(NC(=O)c2[nH]c(C)c(C(C)=O)c2C)c1 | 3.56 µM
COc1ccc(OC)c(Nc2nc(-c3ccccc3O)nc3ccccc23)c1 | 9.61 µM
CCNc1ccc2noc3c2c1C(=O)c1ccccc1-3 | > 40 µM (inactive)
COc1cc(NC(=O)CCn2c(=S)[nH]c3ccccc3c2=O)cc(OC)c1OC | inactive
CCc1cc2cc3c(cc2nc1SCC(=O)Nc1nccs1)OCO3 | > 40 µM (inactive)
O=C(Cc1ccc(Cl)cc1)c1c[nH]c(C(=O)NCc2cccnc2)c1 | 2.51 µM
Cc1sc2nc(N3CCOCC3)[nH]c(=O)c2c1-c1ccccc1 | 7.66 µM
COc1ccc(C)cc1Nc1nc(-c2ccccc2O)nc2ccccc12 | 4.05 µM
CCOc1ccc(CC(=O)Nc2sc(Cc3ccccc3)cc2C(N)=O)cc1OCC | > 40 µM (inactive)
COC(=O)c1ccc(N/C=C\C(=O)c2ccc3c(c2)OCO3)cc1 | 7.08 µM

Structure (SMILES) | IC50
O=C(Nc1ccccc1)c1cc2c(=O)c3ccccc3oc2nc1C(F)(F)F | 6.94 µM
CN(C)c1ccc(N=Nc2ccccc2C(=O)OCC(=O)NCC2CCCCC2)cc1 | 7.85 µM
Fc1cnc(N2CCc3ccccc32)nc1N1CCc2ccccc21 | 3.22 µM
COc1ccc(C(=O)NC(=S)Nc2ccc3[nH]c(=O)[nH]c3c2)c(OC)c1 | > 40 µM (inactive)
CC(NC(=O)c1ccc(-c2cc(C(F)(F)F)ccc2Cl)o1)c1ccccc1 (stereo unspecified) | > 40 µM (inactive)
NS(=O)(=O)c1ccc(CCNC(=O)c2cc(-c3ccccn3)nc3ccc(Br)cc23)cc1 | 3.78 µM
CC(=O)c1cc2c(cc1N/C(=N/S(=O)(=O)c1ccc(C)cc1)c1ccc(Cl)cc1)OCO2 | > 40 µM (inactive)
O=C1c2cccc3c(N4CCCCC4)ccc(c23)C(=O)N1c1ccccc1O | 5.32 µM
COc1ccc(CC(=O)Nc2ccc(-c3noc(-c4ccccc4OC)n3)cc2)cc1 | 4.17 µM
O=C(COc1ncnc2c(Cl)cc(Cl)cc12)NC1CCCCCC1 | 0.847 µM
Cc1cc(C(C)c2ccccc2)c(O)c(CN2CCOCC2)c1C (stereo unspecified) | inactive
COc1ccc2nc(SCC(=O)Nc3ccc(S(=O)(=O)N4CCCC4)cc3)c(C#N)cc2c1 | inactive
O=C(CSc1ncnc2c1oc1ccccc12)Nc1ccc2c(c1)OCCO2 | > 40 µM (inactive)
O=C(CN1CCCCC1)Nc1c2c(nc3ccccc13)N(c1ccccc1)CC2 | 3.26 µM
Cc1cc(-c2ccccc2)nc2oc3c(c12)NC(=O)CN(c1ccccc1)C3=O | 0.378 µM
CC(=O)Nc1ccc(Nc2c3c4c(cccc4n(C)c2=O)C(=O)c2ccccc2-3)cc1 | 5.25 µM
O=C(Cn1c(=S)[nH]c2ccccc2c1=O)NCCc1ccccc1 | 8.97 µM
COc1ccc(Cn2ccc3ccc(-c4ccc5ccn(C(=O)c6ccc(C)cc6)c5c4)cc32)cc1 | > 40 µM (inactive)
O=C(Nc1nc(=O)c2ccccc2s1)c1ccc(Cl)cc1 | > 40 µM (inactive)
CN(C)c1ccc(N=Nc2ccccc2C(=O)OCC(=O)N2CCCCCC2)cc1 | inactive
COc1ccc(-c2cc(C3CC3)nc(SCC(=O)c3cccs3)c2C#N)cc1 | 6.69 µM
CCC(C)(C)c1ccc(OCCCC[n+]2cccc(C)c2)c(C(C)(C)CC)c1 | 4.39 µM

Structure (SMILES) | IC50
O=C(NCc1ccco1)c1ccc(Cn2c(=O)c3ccccc3n(Cc3cccc(F)c3)c2=O)cc1 | 2.43 µM
C=CCn1cc(/C=C/c2cc[n+](C)cc2)c2ccccc21 | > 40 µM (inactive)
COc1cc(/C=C(\C#N)c2nc3ccccc3o2)ccc1O | 2.91 µM
Nc1c2c(nc3ccccc13)CCN(Cc1ccccc1)C2 | inactive
CC(=O)Nc1ccc(N2C(=O)c3cccc4c(O)ccc(c34)C2=O)cc1 | 0.328 µM
Cc1ccc2c(c1C)NC(=O)CC(c1ccccc1O)=N2 | > 40 µM (inactive)
C[n+]1c2cc(N)ccc2cc2ccc(N)cc21 | 2.68 µM and 8.02 µM
COc1ccc(N2C(=O)c3cccc4c(N(C)CCO)ccc(c34)C2=O)cc1 | inactive
CCCOc1ccc(/C(CC)=N/NC(=O)C2(C)CC2(Br)Br)cc1 (stereo unspecified) | inactive
N=C1C(c2nc3ccccc3s2)=C(O)CN1NC(=O)c1c[nH]c2ccccc12 | 4.45 µM
C=CCn1c(SCC(=O)Nc2sccc2C#N)nc2sc(C)c(C)c2c1=O | > 40 µM (inactive)
CCOC(=O)c1sc(NC(=O)c2ccc(S(=O)(=O)N(CC)CC)cc2)nc1C | inactive
COc1ccccc1-c1ccc2c(c1)C(C)(Cc1cccc(F)c1)C(=O)N2 (stereo unspecified) | 7.15 µM
O=C(CSc1ncnc2c1oc1ccccc12)c1cccs1 | 6.36 µM
CC(=O)c1sc(NC(=O)c2oc3ccc(F)cc3c2C)nc1C | 8.25 µM
O=C(CSc1nnc2scc(-c3ccccc3)n12)Nc1nsc(-c2ccccc2)n1 | > 40 µM (inactive)
Cc1cccc(N2CCN(c3ccc4cc(S(=O)(=O)N5CCCCC5)ccc4n3)CC2C)c1 (stereo unspecified) | 4.89 µM
Cc1ccc2cc(C#N)c(SCC(=O)N3CCCc4ccccc43)nc2c1 | 6.5 µM
O=C(NCc1ccco1)c1ccc(Cn2c(=O)c3sccc3n(Cc3cccc(F)c3)c2=O)cc1 | > 40 µM (inactive)
OCC[n+]1ccc(/C=C/c2c[nH]c3ccccc23)cc1 | > 40 µM (inactive)
COCCN1C(=O)/C(=C/c2ccc(N3CCCC3)cc2C)SC1=S | 6.19 µM
COc1cccc(Nc2nc(-c3ccccc3O)nc3ccccc23)c1 | 9.08 µM

Structure (SMILES) | IC50
CC(=O)c1cccc(NC(=O)c2csc(-n3nc(C)cc3C(F)(F)F)n2)c1 | 3.61 µM
O=[N+]([O-])c1ccc(N2CCCC2)c2ccncc12 | > 40 µM (inactive)
C=CCSc1nc(N)c(C#N)c(-c2ccccc2)c1C#N | inactive
CCOc1ccc(-c2nnc3ccc(SCC(=O)Nc4nc5ccc(C)cc5s4)nn23)cc1 | 7.12 µM
Cc1cc(C)cc(OCc2nc3ncc(Br)cc3[nH]2)c1 | 2.43 µM
Cn1cc(/C=C/c2cc[n+](C)cc2)c2cc(Cl)ccc21 | > 40 µM (inactive)
CCN1C(=O)/C(=C\N2CCN(c3ccc(F)cc3)CC2)SC1=S | > 40 µM (inactive)
COc1ccccc1N1N=C(C(=O)c2ccccc2)C2C(=O)N(c3ccc(Br)cc3)C(=O)C21 (stereo unspecified) | 8.96 µM
O=C(CSc1nc2ccccc2nc1N1CCCCC1)NCc1ccc(Cl)cc1Cl | 7.15 µM
Cn1c2ccccc2n2c(=O)c(Cl)c(-c3ccccc3)c(C#N)c12 | 3.4 µM
O=C(COc1ccc2ccccc2c1Br)NNC(=O)Nc1ccccc1 | 0.778 µM
CCn1c(SCC(=O)Nc2cc(C)on2)nc2sc(C)c(C)c2c1=O | 4.73 µM
Cc1cccc(N2CCN(c3ccc4cc(S(=O)(=O)N5CCCCC5)ccc4n3)CC2)c1C | > 40 µM (inactive)
CC1CC1C(=O)Nc1nc(-c2cccs2)c(-c2cccs2)s1 (stereo unspecified) | 5.22 µM
CC1(C)Cc2c(c(N3CCOCC3)nc3sc4c(NN)ncnc4c23)CS1 | > 40 µM (inactive)
N#Cc1ccccc1Sc1ccccc1C(=O)OCC(=O)NC1CCCCC1 | inactive
Cc1ccc(-n2c(N)c(C#N)c(-c3ccccc3)c(C#N)c2=O)cc1 | > 40 µM (inactive)
COc1cc2oc(=O)cc(-c3ccc(-c4ccc(CO)cc4)cc3)c2c(OC)c1OC | 5.84 µM
